Values quoted from earlier work in US20030185915A1, “Synergetic composition for the treatment of psoriasis and other skin disorders and method therefor” (priority 2002, published 2003).

Tested on: psoriatic arthritis
Settings: usually within four to eight weeks

O=C(O)c1cc(/N=N/c2ccc(S(=O)(=O)Nc3ccccn3)cc2)ccc1O [Sulfasalazine]
fraction of PA patients responding rapidly: Approximately one-third
